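Exposure lasted 48 hours, with cells grown in 96-well plates and compounds tested at five concentrations. GI50: concentration for 50% inhibition of growth.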 Calls of active or inactive are those of the source. No stated cut-off is given here; in the data, active = GI50 up to about 1.1 µM and inactive = higher.

Among the test systems are 786-0; A498; DU-145; EKVX; HT-29; IGROV-1; K562; MDA-MB-435; NCI-H226; NCI-H460; OVCAR-4; RPMI-8226; SF-539; SK-MEL-28; SN12C; SNB-75; SR; TK-10; UACC-257; UO-31.
What all share (experiment): DTP human tumour cell line panel, 48 h

One may read the GI50 as the concentration that inhibits growth by half. As to `CC1=CC(=O)CC(C)(C)C1(O)/C=C/C(C)=C/C(=O)O` (stereo not given), the GI50 with 786-0, in the experiment on A498, in the experiment with DU-145, in the experiment with EKVX, in the experiment with HT-29 and in the experiment on IGROV-1 was > 100 µM (inactive) in each case. Further, the GI50 with K562, with MDA-MB-435, with NCI-H226, in the experiment on NCI-H460, with OVCAR-4 and with RPMI-8226 was > 100 µM (inactive) throughout. In addition, the GI50 with SF-539, in the experiment with SK-MEL-28, in the experiment with SN12C, with SNB-75, in the experiment on SR and in the experiment with TK-10 was > 100 µM (inactive) each time. Also, the GI50 with UACC-257 and with UO-31 was > 100 µM (inactive) in each case.
In the case of `c1cc2nnc1SCCSCCSc1ccc(nn1)SCCSCCS2`, the GI50 in the experiment on 786-0, in the experiment with A498, with DU-145, in the experiment with EKVX, with HT-29 and in the experiment on IGROV-1 was > 100 µM (inactive) in each case. The GI50 in the experiment on K562, in the experiment on MDA-MB-435, with NCI-H226, in the experiment with NCI-H460, in the experiment on OVCAR-4 and with RPMI-8226 was > 100 µM (inactive) each time. Also, the GI50 in the experiment with SF-539 is 25.4 µM (inactive); in the experiment on SK-MEL-28, > 100 µM (inactive); with SN12C, > 100 µM (inactive); with SNB-75, 18.5 µM (inactive); with SR it was > 100 µM (inactive); in the experiment on TK-10 it was > 100 µM (inactive). Further, the GI50 with UACC-257 and in the experiment on UO-31 was > 100 µM (inactive) throughout.
On to `CCCCCC(O)C(O)CCC[C@H](O)[C@H]1CC[C@H]([C@H]2CC[C@H]([C@H](O)CCCCCCCCCCCCC3=C[C@H](C)OC3=O)O2)O1` (stereo not given in full), for which the GI50 in the experiment on 786-0 is 3.84 µM (inactive); in the experiment on A498, 2.65 µM (inactive); with DU-145, 9.18 µM (inactive); with EKVX, 2.62 µM (inactive); with HT-29, 2.63 µM (inactive); in the experiment on IGROV-1 it was 3.24 µM (inactive). Also, the GI50 in the experiment on K562 is 1.38 µM (inactive); in the experiment on MDA-MB-435 it was 1.5 µM (inactive); in the experiment with NCI-H226, 2.49 µM (inactive); in the experiment on NCI-H460, 2.43 µM (inactive); in the experiment on OVCAR-4, 5.11 µM (inactive); with RPMI-8226, 1.28 µM (inactive). For the same molecule, the GI50 in the experiment on SF-539 was 5.7 µM (inactive); with SK-MEL-28 it was 2.56 µM (inactive); in the experiment on SN12C, 3.87 µM (inactive); in the experiment on SNB-75, 5.43 µM (inactive); in the experiment on SR, 4.15 µM (inactive); in the experiment with TK-10, 2.86 µM (inactive). Further, the values for the GI50 in the experiment on UACC-257 and in the experiment on UO-31 were 0.597 µM (active) and 1.85 µM (inactive), respectively.
`Cc1ccc(S(=O)(=O)Nc2ccccc2C=O)cc1`: the GI50 with 786-0 was 16.3 µM (inactive); with A498, 30 µM (inactive); with DU-145, 26.1 µM (inactive); with EKVX it was 25 µM (inactive); in the experiment with HT-29 it was 22.8 µM (inactive); in the experiment with IGROV-1 it was 17.4 µM (inactive). The GI50 with K562 is 8.15 µM (inactive); in the experiment with MDA-MB-435 it was 10.5 µM (inactive); with NCI-H226, 14.6 µM (inactive); in the experiment on NCI-H460 it was 19.8 µM (inactive); in the experiment on OVCAR-4 it was 16.4 µM (inactive); in the experiment with RPMI-8226, 5.62 µM (inactive). Further, the GI50 was 0.569 µM (active) in the experiment with SF-539; 21.3 µM (inactive) in the experiment with SK-MEL-28; 16.1 µM (inactive) with SN12C; 18.3 µM (inactive) in the experiment with SNB-75; 18.2 µM (inactive) in the experiment with SR; 17.9 µM (inactive) in the experiment with TK-10. The results for the GI50 in the experiment with UACC-257 and with UO-31 were 18 µM (inactive) and 10.7 µM (inactive), respectively.
In the case of `Cc1cccc(-c2cc(O)c3c(C)cc(C)nc3n2)c1`, the GI50 with 786-0 was 4.57 µM (inactive); with A498, 5.71 µM (inactive); in the experiment on DU-145, 4.32 µM (inactive); in the experiment on EKVX it was 22 µM (inactive); in the experiment with HT-29 it was 2.12 µM (inactive); in the experiment with IGROV-1, 4.06 µM (inactive). For the same molecule, the GI50 in the experiment with K562 is 0.585 µM (active); with MDA-MB-435, 0.321 µM (active); with NCI-H226, 3.59 µM (inactive); in the experiment on NCI-H460, 2.95 µM (inactive); in the experiment with OVCAR-4, 4.38 µM (inactive); with RPMI-8226 it was 4.07 µM (inactive). Also, the GI50 in the experiment with SF-539 is 2.75 µM (inactive); in the experiment with SK-MEL-28, 13.1 µM (inactive); in the experiment on SN12C it was 8.91 µM (inactive); in the experiment on SNB-75, 1.99 µM (inactive); in the experiment on SR, 0.38 µM (active); in the experiment on TK-10 it was 16.1 µM (inactive). In addition, the GI50 in the experiment on UACC-257 is 7.87 µM (inactive); in the experiment with UO-31 it was 9.91 µM (inactive).
On to `O=C(O)CNCc1c2ccccc2nc2ccccc12`, for which the GI50 in the experiment on 786-0 is 36 µM (inactive); in the experiment with A498, 66.1 µM (inactive); in the experiment with DU-145, > 100 µM (inactive); with EKVX, 38.4 µM (inactive); with HT-29, 27.3 µM (inactive); in the experiment with IGROV-1 it was 45.9 µM (inactive). Moreover, the GI50 with K562 was 8.85 µM (inactive); in the experiment with MDA-MB-435, 36.6 µM (inactive); with NCI-H226, 52.1 µM (inactive); in the experiment with NCI-H460 it was 39.2 µM (inactive); with OVCAR-4, 31.7 µM (inactive); in the experiment with RPMI-8226, 8.43 µM (inactive). The GI50 is 29.9 µM (inactive) in the experiment with SF-539; 59.6 µM (inactive) in the experiment with SK-MEL-28; 44.4 µM (inactive) with SN12C; 32.8 µM (inactive) in the experiment with SNB-75; 7.33 µM (inactive) in the experiment on SR; 61.9 µM (inactive) in the experiment on TK-10. The GI50 in the experiment with UACC-257 is 34.1 µM (inactive); in the experiment with UO-31, 25.2 µM (inactive).
As to `COc1ccc(-c2c(CN3CCOCC3)sc3nc4ccccc4n23)cc1`, the GI50 in the experiment with 786-0 is 17.2 µM (inactive); in the experiment on A498, 23.7 µM (inactive); with DU-145, 28.2 µM (inactive); in the experiment with EKVX it was 15.2 µM (inactive); with HT-29, 8.41 µM (inactive); in the experiment on IGROV-1, 8.09 µM (inactive). The GI50 with K562 was 3.31 µM (inactive); in the experiment on MDA-MB-435, 2.94 µM (inactive); in the experiment with NCI-H226, 42.1 µM (inactive); in the experiment with NCI-H460 it was 8.41 µM (inactive); with OVCAR-4, 47.6 µM (inactive); with RPMI-8226, 5.51 µM (inactive). Besides, the GI50 was 16.8 µM (inactive) with SF-539; 18.6 µM (inactive) in the experiment on SK-MEL-28; 33.4 µM (inactive) with SN12C; 14.3 µM (inactive) in the experiment with SNB-75; 3.39 µM (inactive) in the experiment with SR; 58.6 µM (inactive) in the experiment with TK-10. For the same molecule, the GI50 was > 72.1 µM (inactive) in the experiment on UACC-257 and 30.3 µM (inactive) in the experiment with UO-31.
`COC(=O)c1sc2ncc3c(c2c1N)CC(C)CC3` (stereo not given): the GI50 with 786-0 is 81.3 µM (inactive); in the experiment on A498 it was > 100 µM (inactive); in the experiment with DU-145, > 100 µM (inactive); with EKVX it was > 100 µM (inactive); in the experiment on HT-29 it was 67 µM (inactive); in the experiment on IGROV-1 it was > 100 µM (inactive). Also, the GI50 in the experiment on K562, in the experiment with MDA-MB-435, in the experiment with NCI-H226, in the experiment on NCI-H460, in the experiment on OVCAR-4 and in the experiment with RPMI-8226 was > 100 µM (inactive) throughout. The GI50 in the experiment on SF-539 was > 100 µM (inactive); in the experiment with SK-MEL-28, > 100 µM (inactive); in the experiment on SN12C, > 100 µM (inactive); in the experiment on SNB-75 it was 41.4 µM (inactive); in the experiment with SR, > 100 µM (inactive); in the experiment with TK-10 it was > 100 µM (inactive). In addition, the GI50 in the experiment with UACC-257 and with UO-31 was > 100 µM (inactive) in each case.

These data come from ChEMBL document CHEMBL1201862, “PubChem BioAssay data set” (2004).
